According to ChEMBL document CHEMBL1122438, “2-Phenylpyrazolo[1,5-a]pyrimidin-7-ones. A new class of nonsteroidal antiinflammatory drugs devoid of ulcerogenic activity” (J Med Chem, 1983):
Activity calls are given as the source filed them. No cut-off for these calls is given here.

Tests used:
Rattus norvegicus [1] = experiment: Percent reduction of edema in rat on 23rd day after oral administration of 30 mg/kg in antiarthritis assay; i = Inactive; assay type: functional, organism-based; parameters: dose 30 mg/kg; conditions: at 30 mg/kg
Mus musculus [2] = experiment: Percent reduction of edema in mice 3h after oral administration of 30 mg/kg in carrageenan model; assay type: functional
Mus musculus [3] = experiment: Acute toxicity was evaluated as number of mice (tested=7) died after 72nd hour when 100 mg/kg is administered intraperitoneally; assay type: organism-based; parameters: dose 100 mg/kg, route intraperitoneal; conditions: in vivo, ip
Mus musculus [4] = experiment: Acute toxicity was evaluated as number of mice (tested=7) died after 72nd hour when 115 mg/kg is administered intraperitoneally; assay type: organism-based; parameters: dose 115 mg/kg, route intraperitoneal; conditions: in vivo, ip
Mus musculus [5] = experiment: Analgesic activity evaluated by measuring % analgesic effect, after oral administration of 60 mg/kg in acetic acid writhing test; assay type: functional
Mus musculus [6] = experiment: Analgesic activity evaluated by measuring % analgesic effect, after oral administration of 80 mg/kg in acetic acid writhing test; assay type: functional
Mus musculus [7] = experiment: Acute toxicity was evaluated as number of mice (tested=7) died after 72nd hour when 120 mg/kg is administered intraperitoneally; assay type: organism-based; parameters: dose 120 mg/kg, route intraperitoneal; conditions: in vivo, ip
Mus musculus [8] = experiment: Acute toxicity was evaluated as number of mice (tested=7) died after 72nd hour when 130 mg/kg is administered intraperitoneally; assay type: organism-based; parameters: dose 130 mg/kg, route intraperitoneal; conditions: in vivo, ip
Mus musculus [9] = experiment: […] toxicity was evaluated (number of mice died after 72nd hour when 150 mg/kg is administered intraperitoneally; assay type: organism-based; parameters: dose 150 mg/kg, route intraperitoneal; conditions: in vivo, ip
[10] = Toxic activity is expressed as LD50 values; assay type: toxicity, organism-based; conditions: mouse, in vivo
[11] = Therapeutic index was expressed as LD50/ED50 carragreenin model; conditions: mouse; read-out: TI
Mus musculus [12] = experiment: Analgesic activity evaluated by measuring % analgesic effect, after oral administration of 120 mg/kg in acetic acid writhing test; assay type: functional
Mus musculus [13] = species: Mus musculus; experiment: (§1) Analgesic activity in acetic acid writhing test, activity is expressed as ED50 values; assay type: functional
Rattus norvegicus [14] = species: Rattus norvegicus; experiment: Antiinflammatory activity in carrageenan model, activity is expressed as ED50 values; assay type: functional
Rattus norvegicus [15] = experiment: Antiinflammatory activity evaluated by measuring % reduction of edema, 3h after oral administration of 25 mg/kg in carrageenan model; assay type: functional
Rattus norvegicus [16] = experiment: Antiinflammatory activity evaluated by measuring % reduction of edema, 3h after oral administration of 100 mg/kg in carrageenan model; assay type: functional
Rattus norvegicus [17] = experiment: Antiinflammatory activity evaluated by measuring % reduction of edema, 3h after oral administration of 10 mg/kg in carrageenan model; assay type: functional
Rattus norvegicus [18] = experiment: Percent reduction of edema in rat on 23rd day after oral administration of 30 mg/kg in antiarthritis assay; assay type: functional
Rattus norvegicus [19] = species: Rattus norvegicus; experiment: Ulcer index of the compound; assay type: functional
Mus musculus [20] = experiment: Percent reduction of edema in mice 3h after oral administration of 20 mg/kg in carrageenan model; assay type: functional
Rattus norvegicus [21] = experiment: Percent reduction of edema in rat on 23rd day after oral administration of 20 mg/kg in antiarthritis assay; i = Inactive; assay type: functional, organism-based; parameters: dose 20 mg/kg; conditions: at 20 mg/kg
Mus musculus [22] = experiment: Analgesic activity evaluated by measuring % analgesic effect, after oral administration of 5 mg/kg in acetic acid writhing test; assay type: functional
Mus musculus [23] = experiment: Analgesic activity evaluated by measuring % analgesic effect, after oral administration of 15 mg/kg in acetic acid writhing test; assay type: functional
Mus musculus [24] = experiment: Analgesic activity evaluated by measuring % analgesic effect, after oral administration of 30 mg/kg in acetic acid writhing test; assay type: functional
Mus musculus [25] = experiment: Analgesic activity evaluated by measuring % analgesic effect, after oral administration of 0.3 mg/kg in acetic acid writhing test; assay type: functional
Mus musculus [26] = experiment: Acute toxicity was evaluated as number of mice (tested=7) died after 72nd hour when 200 mg/kg is administered intraperitoneally; assay type: organism-based; parameters: dose 200 mg/kg, route intraperitoneal; conditions: in vivo, ip
Mus musculus [27] = experiment: Acute toxicity was evaluated as number of mice (tested=7) died after 72nd hour when 250 mg/kg is administered intraperitoneally; assay type: organism-based; parameters: dose 250 mg/kg, route intraperitoneal; conditions: in vivo, ip
Mus musculus [28] = experiment: Acute toxicity was evaluated as number of mice (tested=7) died after 72nd hour when 260 mg/kg is administered intraperitoneally; assay type: organism-based; parameters: dose 260 mg/kg, route intraperitoneal; conditions: in vivo, ip
Mus musculus [29] = experiment: Acute toxicity was evaluated as number of mice (tested=7) died after 72nd hour when 270 mg/kg is administered intraperitoneally; assay type: organism-based; parameters: dose 270 mg/kg, route intraperitoneal; conditions: in vivo, ip
Mus musculus [30] = experiment: Acute toxicity was evaluated as number of mice (tested=7) died after 72nd hour when 280 mg/kg is administered intraperitoneally; assay type: organism-based; parameters: dose 280 mg/kg, route intraperitoneal; conditions: in vivo, ip
Mus musculus [31] = experiment: Percent reduction of edema in mice 3h after oral administration of 17 mg/kg in carrageenan model; assay type: functional
Rattus norvegicus [32] = species: Rattus norvegicus; experiment: as §1; assay type: functional
Rattus norvegicus [33] = experiment: Antiinflammatory activity evaluated by measuring % reduction of edema, 3h after oral administration of 20 mg/kg in carrageenan model; assay type: functional
Rattus norvegicus [34] = experiment: Antiinflammatory activity evaluated by measuring % reduction of edema, 3h after oral administration of 30 mg/kg in carrageenan model; assay type: functional
Rattus norvegicus [35] = experiment: Antiinflammatory activity evaluated by measuring % reduction of edema, 3h after oral administration of 50 mg/kg in carrageenan model; assay type: functional

Row | SMILES | Reduction (Rattus norvegicus [1]) | Reduction (Mus musculus [2]) [%] | LD50 [10] [mg/kg] | selectivity ratio [11] | ED50 (Mus musculus [13]) [mg/kg] | ED50 (Rattus norvegicus [14]) [mg/kg] | Reduction (Rattus norvegicus [15]) [%] | Reduction (Rattus norvegicus [16]) [%] | Reduction (Rattus norvegicus [17]) [%] | Reduction (Rattus norvegicus [18]) [%] | UI (Rattus norvegicus [19]) | other results
1 | CCn1ccc(=O)n2nc(-c3ccccc3)c(N=O)c12 | inactive | 7.03 | – | – | – | – | – | – | – | – | – | –
2 | Cn1ccc(=O)n2nc(-c3ccccc3)cc12 | – | 54 | 127 | 5.13 | 69.6 | 24.7 | 55.1 | 67.5 | 34.2 | 29.8 | 0.5 | Acute toxicity (Mus musculus [3]): 0; Acute toxicity (Mus musculus [4]): 1; Analgesic effect (Mus musculus [5]): 43%; Analgesic effect (Mus musculus [6]): 53.3%; Acute toxicity (Mus musculus [7]): 3; Acute toxicity (Mus musculus [8]): 4; Acute toxicity (Mus musculus [9]): 6; Analgesic effect (Mus musculus [12]): 80.7%
3 | CCn1cc(Br)c(=O)n2nc(-c3ccccc3)c(Br)c12 | inactive | 0 | – | – | – | – | – | – | – | – | – | –
4 | CCOC(Cn1ccc(=O)n2nc(-c3ccccc3)cc12)OCC | – | – | – | – | – | – | – | – | – | – | – | Reduction (Mus musculus [20]): 12.5%; Reduction (Rattus norvegicus [21]): inactive
5 | CCn1ccc(=O)n2nc(-c3ccccc3)cc12 | – | – | 271 | 37.1 | 9.86 | 7.3 | 69.8 | 90.1 | 54.1 | 42.7 | 0.15 | Analgesic effect (Mus musculus [22]): 24.5%; Analgesic effect (Mus musculus [23]): 69.3%; Analgesic effect (Mus musculus [24]): 84.3%; Analgesic effect (Mus musculus [25]): 20%; Acute toxicity (Mus musculus [26]): 0; Acute toxicity (Mus musculus [27]): 1; Acute toxicity (Mus musculus [28]): 2; Acute toxicity (Mus musculus [29]): 3; Acute toxicity (Mus musculus [30]): 5; Reduction (Mus musculus [31]): 54.1%
6 | CCCn1ccc(=O)n2nc(-c3ccccc3)cc12 | – | 52.1 | – | – | – | – | – | – | – | 33 | – | ED50 (Rattus norvegicus [32]): 29.8 mg/kg; Reduction (Rattus norvegicus [33]): 31.9%; Reduction (Rattus norvegicus [34]): 52%; Reduction (Rattus norvegicus [35]): 70.8%
